# Results: patent US7572815B2, “Amide derivative” (Ajinomoto Co., Inc., priority 2003, dated 2009)
# Tested on: male ICR mouse
# Experiment: Acetic acid-induced writhing method
# Type: in vivo
# Settings: intraperitoneal, 30 minutes before 0.8% acetic acid
# Experimental: The effect of the test compound was considered using male ICR mouse (4-week-old) according to a writhing test method induced by acetic acid. For intraperitoneal administration of a test compound and a standard product, the test compound was dissolved in a saline containing 5% DMSO and 5% Tween 80 to a suitable concentration. The test compound was administered 30 minutes before intraperitoneal administration of 0.8% acetic acid solution (diluted with saline), and the number of writhing was measured for 15 minutes from 5 minutes after acetic acid administration. A saline containing 5% DMSO and 5% Tween 80 was intraperitoneally administered to all control groups (vehicle administration group). Using indomethacin as a standard product, the same test was performed.
# The number of writhing by each test compound is shown in FIG. 1, and the number of writhings by indomethacin is shown in FIG. 2.
smiles,measurement,setting,value
"CCN(CCCC(=O)Nc1ccccc1Br)c1cccc(C)c1 [Example 52, N-(2-bromophenyl)-4-(ethyl-3-methylanilino)butanamide]",Inhibition ratio (%) of number of writhing,dose 10 mg/kg,19%
same,Inhibition ratio (%) of number of writhing,dose 20 mg/kg,67%
"COc1ccc2c(c1)c(CC(=O)O)c(C)n2C(=O)c1ccc(Cl)cc1 [indomethacin, reference compound]",Inhibition ratio (%) of number of writhing,dose 10 mg/kg,31%
